Assay results as given in publication PMC12557367, ““Precision on Two Wheels”–Structural Refinement of ^64Cu- and ^68Ga-Labeled Bicyclic Peptides Targeting Nectin‑4 for Improved Tumor Imaging: From Preclinical Development to First-in-Human Application” (Journal of Medicinal Chemistry, 2025).
Where two headings read alike, the source gives them in different places. Numbered stars: 1 amine (or outer) side, 2 acyl side, 3 side chain; on linkers, the order of the positions; unused ones are H or OH. Bridge positions count the residues as written; N and C are the ends. Square brackets hold non-standard residues; d marks the D form. Peptide text beside a SMILES is read from it. * marks the point of attachment. DOTA = O=C(O)CN1CCN(CC(=O)O)CCN(CC(=O)*)CCN(CC(=O)O)CC1; TATA = O=C(CC[*:1])N1CN(C(=O)CC[*:2])CN(C(=O)CC[*:3])C1; X1 = O=C(O)CN1CCN(CC(=O)O)CCN([C@H](CCC(=O)*)C(=O)O)CC1; 1Nal = N[C@@H](Cc1cccc2ccccc12)C(=O)O; 2Nal = N[C@@H](Cc1ccc2ccccc2c1)C(=O)O; Hyp = O=C(O)[C@@H]1C[C@@H](O)CN1; hArg = N=C(N)NCCCC[C@H](N)C(=O)O; SeMet = C[Se]CC[C@H](N)C(=O)O

What was measured:
HT-1376 cells = experiment: Saturation binding assay on intact cells; format: cell-based, human; conditions: ^68Ga-labeled ligand, intact HT-1376 cells, ±SD
Method: For the saturation binding assay, total and nonspecific binding were determined as described above using 10 different radioligand concentrations ([…]) prepared by serial 1:1 dilution. Plots of “total binding” = f(radioligand) were analyzed by nonlinear regressions using the model of “one site-total, accounting for ligand depletion” as implemented in GraphPad Prism, and Plots of “nonspecific binding” = f(radioligand) were analyzed by linear regressions.

[1] = target: T1, immobilized human nectin-4 (Homo sapiens, UniProt Q96NY8); experiment: SPR analysis of binding kinetics; conditions: ±SEM
T1 construct: close to the value determined for the complete extracellular domain of nectin-4 (0.94 nM); purchased R&D Systems 2659-N4
T1 sequence (Q96NY8 32-349 limits assumed): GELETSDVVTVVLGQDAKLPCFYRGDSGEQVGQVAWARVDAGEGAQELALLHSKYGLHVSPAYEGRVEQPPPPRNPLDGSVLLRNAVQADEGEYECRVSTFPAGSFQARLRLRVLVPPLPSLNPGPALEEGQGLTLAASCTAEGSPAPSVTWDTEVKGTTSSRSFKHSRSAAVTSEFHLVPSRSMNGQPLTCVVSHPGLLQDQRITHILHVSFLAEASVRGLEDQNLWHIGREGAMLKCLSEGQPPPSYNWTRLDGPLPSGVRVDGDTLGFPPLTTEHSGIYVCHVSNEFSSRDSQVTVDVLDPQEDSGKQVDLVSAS
Method: For this purpose, recombinant human nectin-4 was covalently immobilized on a CM5 sensor chip by EDC/NHS coupling. For analyses, the buffer composition (HBS-P+, pH 7.4) was similar to that of the FA assay; however, DMSO was completely omitted (1% DMSO for the FA assay).
The SPR analyses were carried out on a Biacore T200 (GE Healthcare, Chicago, IL, USA) at 25 °C using CM5 sensor chips (Cytiva) and HBS-P+ as running buffer (Cytiva) at a flow of 30 μL/min unless otherwise specified and a data collection rate of 10 Hz. All flow cells (FC) were normalized, and functionalization was performed using an amine coupling Kit (Cytiva). […] Binding analyses were performed by a single-cycle kinetic on both FC. Two start-up cycles were performed at the beginning of each experimental set, comprising the injection of bicyclic peptide (50 nM) and analysis on both FC, followed by regeneration. Binding analysis for the bicyclic peptides was performed by consecutive injection of five increasing concentrations (120 s contact time for each concentration), followed by 600 s dissociation time and analysis on both FC. The regeneration was performed by sequential injection of 10 mM NaOAc (pH 5.5) for 60 s, washing the needle using HBS-P+, injection of 10 mM NaOAc (pH 5.5) for 60 s, 600 s waiting, four injections of HBS-P+ (60 s), and a final 600 s waiting for stabilization. Blank runs using only buffer (HBS-P+) instead of the sample were carried out to obtain double-referenced chromatograms. Binding analyses were performed unless otherwise stated in a concentration range between 0.16–100 nM and 1.6–1000 nM (5-fold dilution series) and analyzed in triplicate. The data were analyzed using the Biacore Evaluation software 3.2.1. […] Data were fitted to a 1:1 binding model.

[2] = n-Octanol/PBS distribution coefficient (logD 7.4); format: physicochemical
Method: The determination of logD 7.4 was performed in triplicate. A sample of the ^64Cu/^68Ga-labeled compound containing ≈1 MBq in a volume of 1 μL was added to a 1.5 mL Eppendorf tube containing 400 μL of PBS (pH 7.4) and 400 μL of n-Octanol (the phases were presaturated with each other). The tube was vortexed vigorously for 1 min and then centrifuged at 16,100g for 4 min to separate the phases. For sampling from the aqueous phase, the pipette tip was discharged while passing through the octanol layer. Then, the sample was taken within the aqueous phase. Any residual liquid was carefully removed by moving the tip along the inner wall of an Eppendorf tube. The radioactivity in a defined volume of each layer was measured (ISOMED 2100). The distribution coefficient was expressed as the logarithm of the ratio of counts per minute (cpm) measured in the n-Octanol phase to the cpm measured in the PBS phase.

[3] = target: T2, recombinant human nectin-4 (Homo sapiens, UniProt Q96NY8); experiment: FA-based competitive binding assay with probe 1a
T2 construct: close to the value determined for the complete extracellular domain of nectin-4 (0.94 nM); purchased R&D Systems 2659-N4
T2 sequence (Q96NY8 32-349 limits assumed): T1 sequence (Q96NY8 32-349 limits assumed)
Method: For the competitive binding assay, a constant concentration of probe 1a (1 nM) and of nectin-4 (20 nM) was used, and the concentration of the competitors was varied over at least 3 orders of magnitude. […] Analysis of the curves by nonlinear regression according to dose–response inhibition with variable slope, as implemented in GraphPad Prism (see Experimental section), provided the IC50 value for displacing the probe from nectin-4.
All measurements were conducted at 37 °C over 1200 s (interval of 37 s) using a Cytation 5 multimode microplate reader (BioTek Instruments, Software Gen 5) and black 96-well microplates (BRANDplates with F-bottom wells). Experiments were conducted at an excitation wavelength of 540 nm and an emission wavelength of 620 nm. The FA (r) was calculated by Gen 5 software from the measured parallel and perpendicular fluorescence intensities (I ∥ and I ⊥, respectively) according to eq using a G factor of 0.87 (preset value). r=I∥−G×I⊥/I∥+2G×I⊥ 1
All further data analyses were conducted with GraphPad Prism (version 10.4.1, GraphPad Software, San Diego, CA, USA). The assay mixture (100 μL) contained an aqueous solution (99 μL) and DMSO (1%, v/v, 1 μL).
For the competitive binding assay, fixed concentrations of probe 1a (1 nM) and recombinant human nectin-4 (20 nM) and 10 concentrations of nonlabeled peptide (e.g., […] prepared as serial 1:1 dilution) were used (two separate experiments, each performed in duplicate). The corresponding stock solutions of 1a (2.5 nM) and nectin-4 (50 nM) were prepared in HEPES buffer, while the stock solutions of the nonlabeled peptides were prepared in 5% DMSO/HEPES buffer. nectin-4 (40 μL) and 1a (40 μL) were added to the wells, and the competition was started by the addition of the nonlabeled peptides (20 μL). The FA values were averaged over the time period of 1200 s, and plots of FA = f([peptide]) were analyzed by nonlinear regression according to the model “[inhibitor] vs. response – Variable slope (four parameters)” as implemented in GraphPad Prism. […] Therefore, the lower FA plateau was constrained to the FA value of probe 1a in the absence of nectin-4 and the competitor, which was recorded in each experiment.

[4] = Oxidation stability in H2O2 (radio-HPLC)
Method: To avoid a too rapid degradation of radiolabeled peptides, a low H2O2 concentration of 0.0012% was chosen. […] In this context, there are three further thioether functionalities in each peptide due to the cyclization of the Cys residues with TATA. In Figure , the curves for the time-dependent degradation of the intact radioligands are depicted, from which the respective half-lives were calculated.
The stability toward oxidizing conditions was assessed with H2O2. For this purpose, the radioligands (2 nmol, 48 μL of labeling mixture) were treated with H2O2 (2 μL of 0.03%, final concentration of 0.0012%) at ambient temperature. At distinct time points (3, 5, and 7 h), an aliquot of 2 μL was withdrawn and diluted with 48 μL of a mixture named “Supersol,” which consists of 20% ethanol, 0.5% Triton X-100, 5 mM EDTA, 0.5 mM o-phenanthroline, and 0.1% saponin. […] The resulting solutions were analyzed by radio-HPLC (same system as that used for analyzing the ^64Cu-labelings).

kon ([1]; HBS-P+ pH 7.4, 25 °C, read-out: k on (SPR, *10^6 M^–1 s^–1)) [M⁻¹ s⁻¹]	koff ([1]; pH 7.4, HBS-P+ pH 7.4, 25 °C, read-out: k off (SPR, *10^–3 s^–1)) [s⁻¹]	logD ([2]; pH 7.4, logD 7.4)	factor less potent than DOTA conjugate 1f ([3]; FA K d ratio) [fold]	fold lower binding affinity compared to 1e ([3]; FA K d ratio) [fold]	Hill coefficient n ([3]; competitive binding curve, variable slope)	SMILES	Kd (HT-1376 cells; 60 min, PBS wash, apparent) [nM]	B max (fmol/mg) (HT-1376 cells)	logD ([2]; ^64Cu-labeled ligand, n-octanol/PBS pH 7.4, ±SD, read-out: logD 7.4)	half-life ([4]; half-life of intact radiolabeled peptide (T1/2), 0.0012% H2O2, 25 °C, one-phase decay) [min]	half-life ([4]; half-life of intact radiolabeled peptide, 0.0012% H2O2) [min]
20000	0.00239	-2.79	21	213	1.23	CSCC[C@@H]1NC(=O)[C@@H]2CSCCC(=O)N3CN(CN(C3)C(=O)CCSC[C@H](NC(=O)CN3CCN(CC(=O)O)CCN(CC(=O)O)CCN(CC(=O)O)CC3)C(=O)N3CCC[C@H]3C(=O)N[C@@H](Cc3ccc4ccccc4c3)C(=O)N[C@H](CC(=O)O)C(=O)N2)C(=O)CCSC[C@@H](C(N)=O)NC(=O)[C@H](Cc2c[nH]c3ccccc23)NC(=O)[C@@H]2C[C@@H](O)CN2C(=O)[C@@H]2CCCN2C(=O)[C@H]([C@@H](C)O)NC(=O)[C@H](CO)NC(=O)[C@H](Cc2c[nH]c3ccccc23)NC(=O)[C@H](CC(=O)O)NC(=O)[C@H](CCCNC(=N)N)NC1=O [8c] ({DOTA}-CP[2Nal][dD]CMRDWSTP[Hyp]WC-NH2; linker 1-5-15 via TATA)	103	799 (±136) fmol/mg			
						C[Se]CC[C@@H]1NC(=O)[C@@H]2CSCCC(=O)N3CN(CN(C3)C(=O)CCSC[C@H](NC(=O)CC[C@H](C(=O)O)N3CCN(CC(=O)O)CCN(CC(=O)O)CC3)C(=O)N3CCC[C@H]3C(=O)N[C@@H](Cc3cccc4ccccc34)C(=O)N[C@H](CC(=O)O)C(=O)N2)C(=O)CCSC[C@@H](C(N)=O)NC(=O)[C@H](Cc2c[nH]c3ccccc23)NC(=O)[C@@H]2C[C@@H](O)CN2C(=O)[C@@H]2CCCN2C(=O)[C@H]([C@@H](C)O)NC(=O)[C@H](CO)NC(=O)[C@H](Cc2c[nH]c3ccccc23)NC(=O)[C@H](CC(=O)O)NC(=O)[C@H](CCCCNC(=N)N)NC1=O [[^64Cu]Cu-5, metal not drawn] (X1-CP[1Nal][dD]C[SeMet][hArg]DWSTP[Hyp]WC-NH2; linker 1-5-15 via TATA)			-2.37	22.8	23
